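The compound was tested at five concentrations on cells cultured in 96-well plates, with a 48-hour exposure period. GI50: concentration for 50% inhibition of growth.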 Calls of active or inactive are those of the source. No stated cut-off is given here; in the data, active = GI50 up to about 1.1 µM and inactive = higher.
What was measured:
Test in all cases: growth of human tumour cells (NCI), 48 h
[1] = test system: BT-549
[2] = test system: DMS-273
[3] = test system: RXF 631
[4] = test system: LXFL 529
[5] = test system: SNB-78
[6] = test system: KM-20L2
[7] = test system: XF498
[8] = test system: HOP-18
[9] = test system: DMS-114

SMILES: COc1c(C)c(C/C=C(\C)CCCC(C)CCCC(C)CCCC(C)C)c(OC)c2ccccc12 (stereo not given)
- GI50 [1]: > 100 µM (inactive)

SMILES: CCC(=O)C(C(=O)CC)c1c(OC(=O)c2ccccc2)ccc(O)c1C(=O)OC
- GI50 [2]: > 100 µM (inactive)
- GI50 [3]: > 100 µM (inactive)
- GI50 [4]: > 100 µM (inactive)
- GI50 [5]: > 100 µM (inactive)
- GI50 [6]: > 100 µM (inactive)
- GI50 [7]: > 100 µM (inactive)

SMILES: Clc1ccc(-c2nnc(-c3nn(-c4ccccc4)c4nc5ccccc5nc34)o2)cc1
- GI50 [2]: 47.5 µM (inactive)
- GI50 [8]: > 100 µM (inactive)
- GI50 [9]: 26.1 µM (inactive)
- GI50 [4]: 27.2 µM (inactive)
- GI50 [5]: > 100 µM (inactive)
- GI50 [6]: > 100 µM (inactive)
- GI50 [7]: 13 µM (inactive)

SMILES: NC(=O)CC[C@H]1C(=O)N=C(N)N1C(=O)OCc1ccccc1
- GI50 [1]: > 100 µM (inactive)

SMILES: COc1cc(CSc2ccc(O)cc2)cc(OC)c1OC
- GI50 [1]: 16.4 µM (inactive)

SMILES: COC(=O)C1=CCC[C@H]2[C@@]1(COC(C)=O)CC[C@@H](C)[C@]2(C)CC(=O)c1ccoc1
- GI50 [1]: 10.9 µM (inactive)

SMILES: Cn1c(=O)cc(NCCc2ccccc2)[nH]c1=O
- GI50 [1]: 47.8 µM (inactive)

SMILES: CSc1nc2nccnc2c(=O)[nH]1
- GI50 [2]: > 100 µM (inactive)
- GI50 [8]: > 100 µM (inactive)
- GI50 [9]: > 100 µM (inactive)
- GI50 [4]: > 100 µM (inactive)
- GI50 [6]: > 100 µM (inactive)
- GI50 [7]: > 100 µM (inactive)

SMILES: OC(CCN1CCN(CCOC(c2ccc(F)cc2)c2ccc(F)cc2)CC1)c1ccccc1 (stereo not given)
- GI50 [1]: 14.1 µM (inactive)

SMILES: COc1ccc(-c2cc(=O)c3c(O)cccc3o2)c(OC)c1OC
- GI50 [2]: 13.7 µM (inactive)
- GI50 [3]: 66.8 µM (inactive)
- GI50 [9]: 18.6 µM (inactive)
- GI50 [4]: 99.5 µM (inactive)
- GI50 [5]: 51.4 µM (inactive)
- GI50 [6]: > 100 µM (inactive)
- GI50 [7]: 65.6 µM (inactive)

SMILES: CCOC(=O)/C=C(/C(=O)OCC)n1cc(C)c(=O)[nH]c1=O
- GI50 [1]: 10.3 µM (inactive)

SMILES: COc1ccc2c(c1)c1c(n2CCN(C)C)-c2cccc(OC)c2CC1
- GI50 [1]: 20 µM (inactive)

SMILES: N#CC(Cl)CS(=O)(=O)c1ccccc1 (stereo not given)
- GI50 [1]: 16.7 µM (inactive)
- GI50 [8]: 8.61 µM (inactive)
- GI50 [9]: 4.11 µM (inactive)
- GI50 [5]: 21.1 µM (inactive)
- GI50 [6]: 18.7 µM (inactive)
- GI50 [7]: 2.62 µM (inactive)

SMILES: C=C1CC[C@H]2C(C)=CC[C@H]3C(=C)C(=O)O[C@@H]3[C@@H]12 [EREMANTHIN]
- GI50 [1]: > 100 µM (inactive)

SMILES: O=C(O)CCSC(=O)Nc1ccc([N+](=O)[O-])cc1
- GI50 [2]: > 100 µM (inactive)
- GI50 [9]: > 100 µM (inactive)
- GI50 [4]: > 100 µM (inactive)
- GI50 [5]: > 100 µM (inactive)

SMILES: CCOC(=O)C1CCC(=O)N1C(=O)c1ccc(Cl)cc1 (stereo not given)
- GI50 [1]: > 100 µM (inactive)

SMILES: COc1cc([N+](=O)[O-])ccc1NC(=O)c1cccc([N+](=O)[O-])c1O
- GI50 [8]: 5.32 µM (inactive)
- GI50 [3]: 30.8 µM (inactive)
- GI50 [9]: 22.7 µM (inactive)
- GI50 [4]: 21.3 µM (inactive)
- GI50 [5]: 27.9 µM (inactive)
- GI50 [6]: 27.5 µM (inactive)

SMILES: Cc1ccc(NC(=O)c2ccc(OP(=O)(O)Nc3ccc(C)cc3)cc2)cc1
- GI50 [1]: > 100 µM (inactive)

SMILES: CCCCCNC(=O)c1cc2cc(CCl)ccc2oc1=O
- GI50 [1]: 6.49 µM (inactive)

SMILES: O=[N+]([O-])C1CC/C(=N/O)c2nonc21 (stereo not given)
- GI50 [1]: > 10 µM (inactive)

SMILES: COc1ccc(-c2nc(-c3cnccn3)n(C3OC(CO)C(O)C(O)C3O)n2)cc1 (stereo not given)
- GI50 [1]: > 100 µM (inactive)

SMILES: CC(C)(C)[Si](C)(C)OCC1OC(n2cnc3c(N)ncnc32)C(O)C1O (stereo not given)
- GI50 [1]: 69.5 µM (inactive)

SMILES: COC(=O)c1cc(=O)nc2sc3cccc(C)c3n12
- GI50 [1]: 55.6 µM (inactive)

SMILES: N#CC(C(=O)C(=O)Nc1ccccc1)c1ccccc1 (stereo not given)
- GI50 [2]: > 100 µM (inactive)
- GI50 [4]: > 100 µM (inactive)
- GI50 [6]: > 100 µM (inactive)
- GI50 [7]: > 100 µM (inactive)

SMILES: OCCNCO
- GI50 [2]: > 100 µM (inactive)
- GI50 [4]: > 100 µM (inactive)
- GI50 [5]: > 100 µM (inactive)
- GI50 [6]: > 100 µM (inactive)
- GI50 [7]: > 100 µM (inactive)

SMILES: COc1ccc2[nH]c(Cl)c(/C=C3/C(=O)N(c4ccccc4)c4ccccc43)c2c1
- GI50 [1]: 2.67 µM (inactive)

SMILES: CC(C)=CC1C(C(=O)Oc2ccccc2C(C)C)C1(C)C (stereo not given)
- GI50 [1]: 30 µM (inactive)

SMILES: Cc1nn(-c2ccccc2)c(-c2ccccc2[N+](=O)[O-])c1CC#N
- GI50 [2]: > 100 µM (inactive)
- GI50 [3]: > 100 µM (inactive)
- GI50 [9]: 98.6 µM (inactive)
- GI50 [4]: > 100 µM (inactive)
- GI50 [5]: > 100 µM (inactive)
- GI50 [6]: > 100 µM (inactive)
- GI50 [7]: 21.5 µM (inactive)

SMILES: COc1ccc(-c2nnc(-c3ccncc3)o2)cc1
- GI50 [1]: > 100 µM (inactive)

SMILES: Cc1c2c(c(C)n1-c1ccccc1)C(=O)N(CCN1CCN(c3cccc(C(F)(F)F)c3)CC1)C2=O
- GI50 [1]: > 100 µM (inactive)

SMILES: CCc1ccccc1NC(=O)C1=C(C)NC(C)=C(C(=O)Nc2ccccc2CC)C1c1cccc([N+](=O)[O-])c1
- GI50 [3]: 46.3 µM (inactive)
- GI50 [9]: 30.1 µM (inactive)
- GI50 [4]: 26.2 µM (inactive)
- GI50 [5]: 43.5 µM (inactive)
- GI50 [6]: 31 µM (inactive)

SMILES: CCCCc1c2c(nc3c1CCC/C3=C\c1ccccc1)C(=O)CCC2
- GI50 [2]: 26.1 µM (inactive)
- GI50 [8]: 25.6 µM (inactive)
- GI50 [9]: 20.7 µM (inactive)
- GI50 [4]: 35.6 µM (inactive)
- GI50 [5]: 19.6 µM (inactive)
- GI50 [6]: 22.6 µM (inactive)
- GI50 [7]: 12.1 µM (inactive)

SMILES: COc1cc2c3c4[n+](cc2c(OC)c1OC)CCC4CCC3 (stereo not given)
- GI50 [1]: > 100 µM (inactive)

SMILES: NNc1nnc(CCCCCCCCc2nnc(NN)n2N)n1N
- GI50 [1]: 26.1 µM (inactive)

SMILES: CC1(C)C2CC(=O)C1(C)C(OCc1ccccc1)C2 (stereo not given)
- GI50 [1]: 54.6 µM (inactive)

SMILES: c1ccc(/C(=N/Nc2cnccn2)c2ncccn2)cc1
- GI50 [1]: > 100 µM (inactive)

SMILES: Cc1cc(C)c2c(O)cc(-c3ccc4ccccc4c3)nc2n1
- GI50 [1]: 40.5 µM (inactive)

Reference: ChEMBL document CHEMBL1201862, “PubChem BioAssay data set” (2004)
